Laboratory results as given in ChEMBL document CHEMBL1201862, “PubChem BioAssay data set” (2004).
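Where inhibition never reached the appropriate level, the endpoint shown equals the highest concentration tested. Otherwise, values were interpolated linearly from a five-concentration, 48-hour dose response in 96-well plates. GI50 is the concentration that inhibits growth by half.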 Calls of active or inactive are those of the source. No stated cut-off is given here; in the data, active = GI50 up to about 1.1 µM and inactive = higher.

How the values were obtained:
Experiment in all cases: NCI anticancer screen, dose series, 48 h
A549 = tested on: A549
SN12C = tested on: SN12C
TK-10 = tested on: TK-10
HCT-15 = tested on: HCT-15
ACHN = tested on: ACHN
MOLT-4 = tested on: MOLT-4
OVCAR-8 = tested on: OVCAR-8
Malme-3M = tested on: Malme-3M
NCI-H226 = tested on: NCI-H226
U-251 = tested on: U-251
SNB-75 = tested on: SNB-75
SF-268 = tested on: SF-268
SW-620 = tested on: SW-620
M14 = tested on: M14
OVCAR-5 = tested on: OVCAR-5
K562 = tested on: K562
NCI-H522 = tested on: NCI-H522
UACC-257 = tested on: UACC-257
OVCAR-3 = tested on: OVCAR-3
MDA-MB-435 = tested on: MDA-MB-435

Compound	GI50 (A549)	GI50 (SN12C)	GI50 (TK-10)	GI50 (HCT-15)	GI50 (ACHN)	GI50 (MOLT-4)	GI50 (OVCAR-8)	GI50 (Malme-3M)	GI50 (NCI-H226)	GI50 (U-251)	GI50 (SNB-75)	GI50 (SF-268)	GI50 (SW-620)	GI50 (M14)	GI50 (OVCAR-5)	GI50 (K562)	GI50 (NCI-H522)	GI50 (UACC-257)	GI50 (OVCAR-3)	GI50 (MDA-MB-435)
c1cc2nnc1SCCCSc1ccc(nn1)SCCCSc1ccc(nn1)SCCCS2	> 100 µM (inactive)	> 100 µM (inactive)	> 100 µM (inactive)	> 100 µM	> 100 µM (inactive)	> 100 µM (inactive)	> 100 µM (inactive)	> 100 µM (inactive)	> 100 µM (inactive)	65.2 µM (inactive)	28.6 µM (inactive)	92 µM (inactive)	> 100 µM (inactive)	> 100 µM (inactive)	> 100 µM (inactive)	> 100 µM (inactive)	> 100 µM (inactive)	> 100 µM (inactive)	> 100 µM (inactive)	> 100 µM (inactive)
Cc1n(CC(C)C)c2c([n+]1C)C(=O)c1ccccc1C2=O	0.114 µM (active)	0.0255 µM (active)	0.411 µM (active)	0.478 µM	0.432 µM (active)	0.0478 µM (active)	0.0265 µM (active)	0.0957 µM (active)	0.311 µM (active)	0.0588 µM (active)	0.416 µM (active)	< 0.0169 µM (active)	0.0432 µM (active)	0.27 µM (active)	0.244 µM (active)	0.431 µM (active)	0.0176 µM (active)	0.0513 µM (active)	< 0.01 µM (active)	0.143 µM (active)
Oc1ccc2ccccc2c1/N=N/c1ccc(/N=N/c2ccccc2)cc1	74.5 µM (inactive)	> 100 µM (inactive)	> 100 µM (inactive)	> 100 µM	> 100 µM (inactive)	> 100 µM (inactive)	> 100 µM (inactive)	> 100 µM (inactive)	> 100 µM (inactive)	46.3 µM (inactive)	70.1 µM (inactive)	> 100 µM (inactive)	> 100 µM (inactive)	> 100 µM (inactive)	> 100 µM (inactive)	> 100 µM (inactive)	86.3 µM (inactive)	> 100 µM (inactive)	> 100 µM (inactive)	64.1 µM (inactive)
